Data taken from publication PMC9243654 (Frontiers in Nutrition, 2022).
Read-outs that look alike come from different tables or passages of the source.

How the values were obtained:
[1] = ref PubChem database, cited from earlier work
[2] = in vitro
Experimental: The PAMPA-BBB assay was conducted according to the methodology followed by Di et al., with some modifications as described below ([15]). First, the BBB solution was prepared by dissolving 8 mg of PBL and 4 mg of cholesterol in 600 μl of n-dodecane. The initial donor solution was prepared by mixing 1 ml of extract (10 mg ml^−1 in EtOH) with 1 ml of buffer (PBS, pH = 7.4, 10 mM). The filter membrane of the donor plate was carefully coated with 5 μl of BBB solution. The acceptor plate was filled with 350 μl of buffer, and the donor plate was carefully assembled over the acceptor plate like a “sandwich.” Finally, the donor plate was filled with 350 μl of donor solution, covered, and incubated for 4 h at 37°C in the dark. After incubation time, 300 μl of the solution was taken from both plates, transferred to separate vials, and dried in the SpeedVac system at 40°C and 13 mbar pressure. Dried acceptor and donor solution were dissolved in 50 μl of pure EtOH before subjecting to UHPLC-Q-TOF-MS analysis. Permeability across in vitro BBB of the bioactive compound was measured according to Equation (1) ([25]), with some modifications in concentration rates.
(1) Pe=-ln[1-CA(t)/Ce]/A^*(1/VD+1/VA)^*t
Cequilibrium was calculated according to the following equation ([2]):
(2) Cequilibrium=[CD(t)*VD+CA(t)*VA]/(VD+VA)

[3] = compounds identified in LPLE extract
[4] = compound within LPLE (Nothofagus pumilio, lenga PLE extract), N.D = not detected in acceptor
[5] = compound within LPLE (Nothofagus pumilio, lenga PLE extract), classes based on Könczöl et al.
[6] = compounds of RSFE extract, octanol-water partition coefficient
[7] = PAMPA, pH 7.4, PAMPA-BBB log Pe, compound within LPLE (Nothofagus pumilio, lenga PLE extract), N.D = not detected in acceptor
[8] = compound within RSFE extract, 4 h, 37°C, PBS pH 7.4

| Compound | Log P ([1]; compounds of KD extract) | Cross BBB potential ([2]; compound within KD extract) | Log P [1, 3] | Log P ([1]; compounds of ASFE extract) | Cross BBB potential ([2]; PAMPA) | Log P [1, 6] | other results |
| --- | --- | --- | --- | --- | --- | --- | --- |
| CC(=O)O[C@H]1C[C@@H](O)[C@]2(C=O)[C@H]3CC[C@]4(C)[C@@H](c5ccc(=O)oc5)CC[C@]4(O)[C@@H]3CC[C@]2(O)C1 [Bersaldegenin-3-acetate] | 1.3 | - |  |  |  |  |  |
| O=Cc1ccc(O)c(O)c1 [Protocatechuic aldehyde] |  |  | 1.1 | 1.1 |  |  | PAMPA-BBB log Pe (cm s−1) ([2]; PAMPA, pH 7.4): −5.75 cm s−1; PAMPA-BBB log Pe [2, 4]: −5.13 cm s−1 |
| O=C(O)c1cc(O)c(O)c(Oc2c(O)c(=O)c3oc(O)c4cc(O)c(=O)c5oc(O)c2c3c45)c1 [Sanguisorbic acid dilactone] |  |  | −0.4 | −0.4 |  |  | Cross BBB potential [2, 5]: - |
| CC12O[C@H]3C[C@@H](O1)[C@]1(C=O)[C@H]4[C@H](O)C(=O)[C@]5(C)[C@@H](c6ccc(=O)oc6)CC[C@]5(O)[C@@H]4CC[C@@]1(C3)O2 [Daigremontianin] | −0.3 | ++ (log Pe > −5.5) |  |  |  |  | detection in the acceptor plate of PAMPA-BBB ([2]; PAMPA): could not be found in the acceptor plate; PAMPA-BBB log Pe (cm s−1) ([2]; compound within KD extract, 4 h, 37°C, PBS pH 7.4): −4.53 cm s−1 |
| Kalandaigremoside F | 7.2 | - |  |  |  |  |  |
| Oc1ccc(/C=C/c2cc(O)cc3c2[C@@H](c2cc(O)cc(O)c2)[C@H](c2ccc(O)cc2)O3)cc1 [ε-Viniferin] |  |  | 5.4 | 5.4 |  |  | Cross BBB potential ([2]; compound within ASFE extract): -; Cross BBB potential [2, 5]: - |
| CC1(C)C[C@@H]2C3=CC[C@@H]4[C@@]5(C)CC[C@H](O)[C@@](C)(C=O)C5CC[C@@]4(C)[C@]3(C)CC[C@@]2(C(=O)O)C[C@@H]1O (stereo partly drawn) [Lucyin A] |  |  | 5.3 | 5.3 | ++ |  | PAMPA-BBB log Pe [2, 4]: −4.74 cm s−1 |
| O=c1c(-c2ccc(O)cc2)coc2c([C@@H]3O[C@H](CO)[C@@H](O)[C@H](O)[C@H]3O)c(O)c([C@@H]3O[C@H](CO)[C@@H](O)[C@H](O)[C@H]3O)c(O)c12 [Paniculatin] | −2.3 | - |  |  |  |  |  |
| COc1ccc([C@@H]2CC(=O)c3c(O)cc(O)cc3O2)cc1O [Hesperetin] |  |  | 2.4 |  |  |  | Papp at 4 h ([2]; PAMPA, pH 7.4, PAMPA-BBB log Pe): 5.01 ×10⁻⁶ cm/s |
| COc1c(O[C@@H]2O[C@H](CO)[C@@H](O)[C@H](O)[C@H]2O)cc2oc(-c3ccc(O)cc3)cc(=O)c2c1O [Homoplantaginin] |  |  |  |  | +++ | 0.8 | PAMPA-BBB log Pe (cm s−1) ([2]; PAMPA, 4 h, pH 7.4): −4.24 cm s−1 |
| O=c1c(O[C@@H]2O[C@H](CO)[C@@H](O)[C@H](O)[C@H]2O)c(-c2ccc(O)cc2)oc2cc(O)cc(O)c12 [Kaempferol 3-O-β-D-glucoside] | 2.37 | - |  |  |  |  |  |
| COc1cc(C(=O)O)ccc1O [Vanillic acid] | 1.4 | +++ (log Pe > −4.5) | 1.4 | 1.4 |  |  | Papp at 4 h ([2]; PAMPA, pH 7.4, PAMPA-BBB log Pe (cm s−1), compound within ASFE extract, 4 h, 37°C, PBS pH 7.4): 2.14 ×10⁻⁶ cm/s; Papp at 4 h ([2]; PAMPA, pH 7.4, PAMPA-BBB log Pe (cm s−1), compound within KD extract, 4 h, 37°C, PBS pH 7.4): 55 ×10⁻⁶ cm/s; Papp at 4 h [2, 7]: 1.35 ×10⁻⁶ cm/s; Cross BBB potential ([2]; compound within ASFE extract): + (log Pe > −6.5); Cross BBB potential [2, 5]: + (log Pe > −6.5) |
| COc1c(O)cc2oc(-c3ccc(O)c(O)c3)c(O)c(=O)c2c1O [Patuletin] | 2.1 | - |  |  |  |  |  |
| C=C1CC[C@]2(C(=O)O)CC[C@]3(C)C(=CC[C@@H]4[C@@]5(C)CC[C@H](O)C(C)(C)[C@@H]5CC[C@]43C)[C@@H]2[C@H]1C [Micromeric acid] |  |  |  |  |  | 6.5 | Cross BBB potential ([2]; compound within RSFE extract): - |
| Desdimethyl-octahydro-iso- cohumulone |  |  |  |  |  | 3.8 | Cross BBB potential ([2]; compound within RSFE extract): +++ (log Pe > −4.5); PAMPA-BBB log Pe (cm s−1) [2, 8]: −4.30 cm s−1 |
| CC(=O)O[C@@H]1C[C@H](O)C[C@@]2(O)CC[C@@H]3[C@@H]4[C@@H](C[C@]5(C)[C@@H](c6ccc(=O)oc6)CC[C@]35O)O[C@H](O)[C@]412 [Bryophyllin B] | 0.6 | - |  |  |  |  |  |
| O=C(O)C[C@H]1CCC(=O)[C@@H]1C/C=C\CCO [12- Hydroxyjasmonic acid] |  |  |  |  | +++ | 0.4 | PAMPA-BBB log Pe (cm s−1) ([2]; PAMPA, 4 h, pH 7.4): −4.06 cm s−1 |
| COc1cc(/C=C/C=O)ccc1O [Coniferaldehyde] |  |  | 1.5 | 1.5 |  |  | PAMPA-BBB log Pe (cm s−1) ([2]; PAMPA, pH 7.4): −4.24 cm s−1; PAMPA-BBB log Pe [2, 4]: −4.65 cm s−1 |
| O=C(/C=C/c1ccc(O)c(O)c1)O[C@@H](C(=O)O)[C@@H](O)C(=O)O [Caftaric acid] |  |  |  | 0.1 | - |  |  |
| CCC(O)C1CC(C)C2(CC(=O)C3(C)C4=C(CCC32C)C2(C)CCC(=O)C(C)(CO)C2CC4)O1 [Triterpene*, (23S,24S)-17,23-Epoxy-24,29-dihydroxy-27-norlanost-8-ene-3,15-dione] |  |  | 3.6 | 3.6 | ++ |  | PAMPA-BBB log Pe (cm s−1) ([2]; PAMPA, 4 h, pH 7.4): −4.97 cm s−1; PAMPA-BBB log Pe [2, 4]: −5.05 cm s−1 |
| CC(=O)OC(C)(C)[C@@H]1CC[C@@]2(C)CO[C@]3(C)C=CO[C@]23C1 [Phytuberin] |  |  |  |  | ++ |  | Log P ([1]; compounds of T33 extract): 2.3; PAMPA-BBB log Pe (cm s−1) ([2]; PAMPA, 4 h, pH 7.4): −4.51 cm s−1 |
| COC(=O)[C@]12CCCC(C)(C)[C@@H]1CCc1cc(C(C)C)c(O)c(O)c12 [Methyl carnosate] |  |  |  |  | ++ | 5.2 | Papp at 4 h ([2]; PAMPA, pH 7.4, PAMPA-BBB log Pe (cm s−1)): 5.5 ×10⁻⁶ cm/s |
| C[C@]12CC[C@H]3[C@@H](CC[C@]4(O)C[C@@H](O)C[C@@H](O)[C@]34C=O)[C@@]1(O)CC[C@@H]2c1ccc(=O)oc1 [Bersaldegenin] | 0.2 | - |  |  |  |  |  |
| CC(C)C1=Cc2ccc3c(c2C(=O)C1=O)CCCC3(C)C [Rosmariquinone] |  |  |  |  | ++ | 4.9 | PAMPA-BBB log Pe (cm s−1) ([2]; PAMPA, 4 h, pH 7.4): −5.00 cm s−1 |
| CC(C)=CCc1cc(/C=C/C(=O)O)cc(CC=C(C)C)c1O [Artepillin C] |  |  |  |  | +++ | 5.4 | PAMPA-BBB log Pe (cm s−1) ([2]; PAMPA, 4 h, pH 7.4): −4.42 cm s−1 |
| CC(C)c1cc2c(c(O)c1O)[C@@]13CCCC(C)(C)[C@@H]1[C@H](OC3=O)[C@H]2O [Rosmanol] |  |  |  |  |  | 3.4 | Papp at 4 h ([2]; PAMPA, pH 7.4, PAMPA-BBB log Pe (cm s−1), compound within RSFE extract, 4 h, 37°C, PBS pH 7.4): 145 ×10⁻⁶ cm/s; Cross BBB potential ([2]; compound within RSFE extract): +++ (log Pe > −4.5) |
| COc1cc(C(=O)O)cc(OC)c1O [Syringic acid] | 1.0 |  | 1.0 | 1.0 |  | 1.0 | Papp at 4 h [2, 7]: 0.145 ×10⁻⁶ cm/s; Cross BBB potential ([2]; compound within RSFE extract): - |
| COc1ccc([C@@H]2CC(=O)c3c(O)cc(O[C@@H]4O[C@H](CO[C@@H]5O[C@@H](C)[C@H](O)[C@@H](O)[C@H]5O)[C@@H](O)[C@H](O)[C@H]4O)cc3O2)cc1O [Hesperidin] |  |  | −1.1 | −1.1 |  |  | Cross BBB potential ([2]; compound within ASFE extract): -; Cross BBB potential [2, 5]: - |
| O=C(O)c1ccc(O)cc1 [p-salycilic acid] |  |  |  |  |  | 1.6 | Cross BBB potential ([2]; compound within RSFE extract): +++ (log Pe > −4.5); PAMPA-BBB log Pe (cm s−1) [2, 8]: −4.18 cm s−1; Cross BBB potential ([2]; compound within T33 extract): ++ (log Pe > −5.5); PAMPA-BBB log Pe (cm s−1) ([2]; compound within T33 extract, 4 h, 37°C, PBS pH 7.4): −4.75 cm s−1 |
